The source of these data is ChEMBL document CHEMBL1155003, “Halicyclamine A, a marine spongean alkaloid as a lead for anti-tuberculosis agent” (2008).

≈ marks a conversion by molar mass, not a printed value.

What all share (type): functional
Common to all, as to details: 336 h

Assay [1] deals with Mycobacterium tuberculosis. Description: Antitubercular activity against ethambutol-resistant Mycobacterium tuberculosis H37Rv ATCC 35837 after 14 days.
The test system of assay [2] is Mycobacterium tuberculosis. Description: Antitubercular activity against isoniazid-resistant Mycobacterium tuberculosis H37Rv ATCC 35822 after 14 days.
Assay [3] has as its system Mycobacterium tuberculosis. Description: Antitubercular activity against rifampicin-resistant Mycobacterium tuberculosis H37Rv ATCC 35838 after 14 days.
In assay [4] the test system is Mycobacterium tuberculosis. Description: Antitubercular activity against streptomycin-resistant Mycobacterium tuberculosis H37Rv ATCC 35820 after 14 days.

Turning to `C1=C2CCCC/C=C\C=C\CCN3CC[C@@H]4[C@H](CCCCCC/C=C\C=C/CCN(C2)C[C@H]14)C3` [HALICYCLAMINE A], the MIC (as a rule, the lowest concentration found to suppress growth) in assay [1] worked out at 3.13 µg/mL (≈ 6.76 µM); in assay [2] it was 3.13 µg/mL (≈ 6.76 µM); in assay [3], 3.13 µg/mL (≈ 6.76 µM); in assay [4], 6.25 µg/mL (≈ 13.5 µM).
